# Earlier results as cited in US12661367B2, “Streptomyces spororaveus strain and a new antibiotics against bacteria and fungi” (National Taipei University of Technology, priority 2022, dated 2026).
# Experiments:
# [1] = orally used
smiles,measurement,setting,value
C[C@@H]1C/C=C/C=C/C=C/C=C/[C@H](O[C@@H]2O[C@H](C)[C@@H](O)[C@H](N)[C@@H]2O)C[C@@H]2O[C@](O)(C[C@@H](O)C[C@H]3O[C@@H]3/C=C/C(=O)O1)C[C@H](O)[C@H]2C(=O)O [natamycin],solubility in water,,nearly insoluble in water
same,bioavailability,[1],low bioavailability
